Experimental data reported in article PMC11040104, “The two C. elegans class VI myosins, SPE-15/HUM-3 and HUM-8, share similar motor properties, but have distinct developmental and tissue expression patterns” (Frontiers in Physiology, 2024).
Blank lines part the entries; values can stand above or below the compound they belong to.

How the values were obtained:
HUM-8 [1] = target: T1, HUM-8 (Caenorhabditis elegans, UniProt U4PBY2); assay: stopped-flow pyrene-actin, ADP/ATP competition; format: binding; conditions: bound to pyrene-labelled rabbit F-actin; competition with ATP; pH 7.0, 20 °C, 25 mM KCl, 5 mM MgCl2, probably misprint for µM; read-out: affinity for ADP
T1 construct: motor-neck domain residues 61-904, N-terminal 6xHis, C-terminal GSG linker + RGSIDTWV tag kept; co-expressed with human calmodulin in ExpiSf9; with Actin, alpha skeletal muscle (rabbit, Oryctolagus cuniculus); Calmodulin (human light chain, co-expressed)
T1 sequence (U4PBY2 61-904): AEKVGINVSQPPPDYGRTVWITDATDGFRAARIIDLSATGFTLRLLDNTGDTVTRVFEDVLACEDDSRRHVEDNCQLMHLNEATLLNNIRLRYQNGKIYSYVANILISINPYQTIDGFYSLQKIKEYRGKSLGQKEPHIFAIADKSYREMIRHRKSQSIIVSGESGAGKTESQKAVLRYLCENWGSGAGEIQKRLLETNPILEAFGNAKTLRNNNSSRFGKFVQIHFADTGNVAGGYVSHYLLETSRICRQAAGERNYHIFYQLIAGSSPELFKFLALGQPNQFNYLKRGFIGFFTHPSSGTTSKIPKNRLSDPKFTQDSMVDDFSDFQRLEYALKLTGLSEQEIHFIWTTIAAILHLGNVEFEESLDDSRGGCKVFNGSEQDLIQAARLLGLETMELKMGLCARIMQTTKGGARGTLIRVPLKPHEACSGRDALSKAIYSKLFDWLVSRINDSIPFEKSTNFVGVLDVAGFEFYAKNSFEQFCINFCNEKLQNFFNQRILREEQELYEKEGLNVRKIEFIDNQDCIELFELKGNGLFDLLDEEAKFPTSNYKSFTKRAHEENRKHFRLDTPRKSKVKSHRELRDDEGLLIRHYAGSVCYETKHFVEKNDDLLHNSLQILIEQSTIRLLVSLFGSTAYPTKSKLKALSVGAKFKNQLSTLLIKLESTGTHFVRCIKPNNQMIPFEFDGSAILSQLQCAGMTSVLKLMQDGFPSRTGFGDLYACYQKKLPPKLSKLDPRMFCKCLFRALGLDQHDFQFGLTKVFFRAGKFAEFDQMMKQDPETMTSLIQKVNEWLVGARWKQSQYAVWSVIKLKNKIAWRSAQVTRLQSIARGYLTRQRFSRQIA

human MYO6 [2] = target: T2, human MYO6 (Homo sapiens, UniProt Q9UM54); assay: stopped-flow pyrene-actin, ADP/ATP competition; format: binding; conditions: bound to pyrene-labelled rabbit F-actin; competition with ATP; pH 7.0, 20 °C, 25 mM KCl, 5 mM MgCl2, probably misprint for µM; read-out: affinity for ADP
T2 construct: with Actin, alpha skeletal muscle (rabbit, Oryctolagus cuniculus); Calmodulin (light chain)

SPE-15/HUM-3 [3] = target: T3, SPE-15/HUM-3 (Caenorhabditis elegans, UniProt Q9TZI9); assay: stopped-flow pyrene-actin, ADP/ATP competition; format: binding; conditions: bound to pyrene-labelled rabbit F-actin; competition with ATP; pH 7.0, 20 °C, 25 mM KCl, 5 mM MgCl2, probably misprint for µM; read-out: affinity for ADP
T3 construct: motor-neck domain residues 1-841, N-terminal 6xHis, C-terminal GSG linker + RGSIDTWV tag kept; co-expressed with human calmodulin in ExpiSf9; with Actin, alpha skeletal muscle (rabbit, Oryctolagus cuniculus); Calmodulin (human light chain, co-expressed)

human MYO6 [4] = target: T2, human MYO6; assay: stopped-flow, ATP-induced dissociation of pyrene-actin.myosin; format: binding; conditions: bound to pyrene-labelled rabbit F-actin, pH 7.0, 20 °C, 25 mM KCl, 5 mM MgCl2, not an affinity
SPE-15/HUM-3 [5] = target: T3, SPE-15/HUM-3; assay: as above; format: binding; conditions: bound to pyrene-labelled rabbit F-actin, pH 7.0, 20 °C, 25 mM KCl, 5 mM MgCl2, not an affinity
HUM-8 [6] = target: T1, HUM-8; assay: as above; format: binding; conditions: bound to pyrene-labelled rabbit F-actin, pH 7.0, 20 °C, 25 mM KCl, 5 mM MgCl2, not an affinity
[7] = target: rabbit muscle actin, pyrene-labelled (F-actin) (rabbit) (UniProt P68135); assay: other fluorescence titration; stopped-flow; amplitude of ATP-induced dissociation of pyrene-actin.myosin against myosin concentration, quadratic fit; 20°C, 20 mM MOPS pH 7.0, 25 mM KCl, 5 mM MgCl2, 1 mM DTT
[8] = target: rabbit muscle actin, pyrene-labelled (F-actin) (rabbit) (UniProt P68135)

T3 sequence (Q9TZI9 1-841): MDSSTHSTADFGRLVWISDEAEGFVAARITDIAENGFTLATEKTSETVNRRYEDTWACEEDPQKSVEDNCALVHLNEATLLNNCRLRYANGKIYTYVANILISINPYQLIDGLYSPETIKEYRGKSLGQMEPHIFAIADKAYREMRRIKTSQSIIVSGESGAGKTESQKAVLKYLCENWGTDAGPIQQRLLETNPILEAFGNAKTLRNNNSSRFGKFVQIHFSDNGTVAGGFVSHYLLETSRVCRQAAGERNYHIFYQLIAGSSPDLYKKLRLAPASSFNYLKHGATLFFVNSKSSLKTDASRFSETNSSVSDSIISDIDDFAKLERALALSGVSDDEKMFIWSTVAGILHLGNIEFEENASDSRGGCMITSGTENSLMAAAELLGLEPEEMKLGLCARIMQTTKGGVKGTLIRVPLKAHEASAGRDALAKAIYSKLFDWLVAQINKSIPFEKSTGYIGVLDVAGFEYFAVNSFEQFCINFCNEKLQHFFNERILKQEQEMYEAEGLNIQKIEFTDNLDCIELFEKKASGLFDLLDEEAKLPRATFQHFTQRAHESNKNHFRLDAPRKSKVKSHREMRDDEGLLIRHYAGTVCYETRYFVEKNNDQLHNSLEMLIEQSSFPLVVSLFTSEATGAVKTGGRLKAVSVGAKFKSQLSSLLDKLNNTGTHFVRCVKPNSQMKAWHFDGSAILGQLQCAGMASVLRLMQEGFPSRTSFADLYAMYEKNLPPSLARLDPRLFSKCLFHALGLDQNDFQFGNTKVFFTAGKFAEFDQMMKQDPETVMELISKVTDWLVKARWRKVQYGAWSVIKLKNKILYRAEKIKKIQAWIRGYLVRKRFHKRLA
human MYO6 motor domain, sequence (Q9UM54 whole entry, the tested form may be a part): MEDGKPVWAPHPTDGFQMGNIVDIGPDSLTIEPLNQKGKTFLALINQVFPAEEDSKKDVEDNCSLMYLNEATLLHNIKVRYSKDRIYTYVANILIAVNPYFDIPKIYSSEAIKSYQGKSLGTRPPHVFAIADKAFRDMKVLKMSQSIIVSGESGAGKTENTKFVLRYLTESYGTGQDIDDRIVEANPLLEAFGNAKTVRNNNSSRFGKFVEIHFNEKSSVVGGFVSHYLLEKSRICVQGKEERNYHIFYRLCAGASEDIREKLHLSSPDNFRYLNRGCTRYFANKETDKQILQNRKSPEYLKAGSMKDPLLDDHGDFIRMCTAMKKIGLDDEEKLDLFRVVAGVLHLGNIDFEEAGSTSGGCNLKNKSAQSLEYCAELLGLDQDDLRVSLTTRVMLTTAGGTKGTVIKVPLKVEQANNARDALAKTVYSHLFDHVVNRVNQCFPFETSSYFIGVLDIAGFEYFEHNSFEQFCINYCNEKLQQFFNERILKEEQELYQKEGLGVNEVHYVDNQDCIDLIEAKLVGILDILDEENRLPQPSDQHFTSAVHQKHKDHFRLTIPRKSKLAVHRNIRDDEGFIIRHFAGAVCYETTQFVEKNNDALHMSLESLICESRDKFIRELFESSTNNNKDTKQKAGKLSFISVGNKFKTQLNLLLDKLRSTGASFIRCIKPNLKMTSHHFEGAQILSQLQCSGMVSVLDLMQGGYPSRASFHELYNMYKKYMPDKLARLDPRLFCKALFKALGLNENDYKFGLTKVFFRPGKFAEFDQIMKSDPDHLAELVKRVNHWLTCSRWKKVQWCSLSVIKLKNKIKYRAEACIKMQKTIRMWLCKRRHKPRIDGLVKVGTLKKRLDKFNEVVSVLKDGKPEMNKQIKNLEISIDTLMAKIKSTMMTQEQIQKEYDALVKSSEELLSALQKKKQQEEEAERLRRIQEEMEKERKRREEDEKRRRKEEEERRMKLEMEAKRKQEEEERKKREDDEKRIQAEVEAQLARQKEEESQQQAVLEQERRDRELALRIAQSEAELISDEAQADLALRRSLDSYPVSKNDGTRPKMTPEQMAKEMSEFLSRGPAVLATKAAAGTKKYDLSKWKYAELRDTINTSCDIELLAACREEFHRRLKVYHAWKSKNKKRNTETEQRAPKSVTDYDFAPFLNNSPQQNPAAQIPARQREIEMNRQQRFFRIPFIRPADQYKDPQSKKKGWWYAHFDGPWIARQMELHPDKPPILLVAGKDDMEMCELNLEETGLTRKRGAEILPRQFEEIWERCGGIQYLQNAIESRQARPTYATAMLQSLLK
T2 sequence (Q9UM54 1-840 limits assumed): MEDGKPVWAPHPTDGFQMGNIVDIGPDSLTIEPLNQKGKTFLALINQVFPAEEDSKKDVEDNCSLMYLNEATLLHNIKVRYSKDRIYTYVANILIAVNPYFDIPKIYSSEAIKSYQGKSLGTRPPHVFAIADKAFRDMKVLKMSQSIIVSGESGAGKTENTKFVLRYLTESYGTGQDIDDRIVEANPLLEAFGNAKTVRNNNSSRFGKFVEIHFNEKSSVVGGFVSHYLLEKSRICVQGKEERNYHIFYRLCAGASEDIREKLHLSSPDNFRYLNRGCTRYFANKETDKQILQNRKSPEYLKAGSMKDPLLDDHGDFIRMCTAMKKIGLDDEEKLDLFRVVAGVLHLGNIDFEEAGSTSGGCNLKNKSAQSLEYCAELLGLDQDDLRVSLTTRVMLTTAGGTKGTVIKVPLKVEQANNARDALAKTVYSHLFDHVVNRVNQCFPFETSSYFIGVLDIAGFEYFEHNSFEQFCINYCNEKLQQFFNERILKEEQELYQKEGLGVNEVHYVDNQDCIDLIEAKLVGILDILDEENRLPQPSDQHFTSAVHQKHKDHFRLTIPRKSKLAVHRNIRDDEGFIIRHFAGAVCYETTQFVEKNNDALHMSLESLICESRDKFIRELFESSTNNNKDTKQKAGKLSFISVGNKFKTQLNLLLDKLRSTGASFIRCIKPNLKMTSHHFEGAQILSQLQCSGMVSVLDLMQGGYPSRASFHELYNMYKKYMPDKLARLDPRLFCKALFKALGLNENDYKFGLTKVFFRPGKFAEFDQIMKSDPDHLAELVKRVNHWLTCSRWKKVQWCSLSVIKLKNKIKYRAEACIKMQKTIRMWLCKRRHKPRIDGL

Kd (HUM-8 [1]): 20000 ± 2000 µM
Kd (human MYO6 [2]): 6000 ± 800 µM
Kd (SPE-15/HUM-3 [3]): 18000 ± 4000 µM
Compound: Nc1ncnc2c1ncn2[C@@H]1O[C@H](COP(=O)(O)OP(=O)(O)O)[C@@H](O)[C@H]1O [ADP]

apparent second order rate constant for ATP binding (human MYO6 [4]): 5000 ± 400 M⁻¹ s⁻¹
apparent second order rate constant for ATP binding (SPE-15/HUM-3 [5]): 9000 ± 800 M⁻¹ s⁻¹
apparent second order rate constant for ATP binding (HUM-8 [6]): 3000 ± 500 M⁻¹ s⁻¹
Compound: Nc1ncnc2c1ncn2[C@@H]1O[C@H](COP(=O)(O)OP(=O)(O)OP(=O)(O)O)[C@@H](O)[C@H]1O [ATP]

Kd [7]: 15 nM
in vitro motility assay: gliding velocity of rhodamine-phalloidin labelled actin filaments on surface-immobilised myosin [8]: 55 nm/s
Compound: human MYO6 motor domain (from UniProt Q9UM54 1-1294) (domain or fragment)
